# Reference: article PMC12645083, “Microwave‐Enhanced Synthesis of 2‐Styrylquinoline‐4‐Carboxamides With Promising Anti‐Lymphoma Activity” (Archiv Der Pharmazie, 2025)
# Experiments:
# [1] = tested on: panel of five lymphoma cell lines (VL51, TOLEDO, SU-DHL-18, SU-DHL-1, KM-H2); assay: Antiproliferative activity, range over the panel of five lymphoma cell lines; format: cell-based, human; conditions: range or statement over the lymphoma cell lines, 72 h; for IC50: Homo sapiens
# Text: Based on these interesting results on hematological malignancies‐derived cell lines, styrylquinolines 4i, 4n, 4s and 4ah were further tested for their antiproliferative activity on a panel of five lymphoma cell lines (VL51, splenic B‐cell lymphoma; TOLEDO, diffuse large B‐cell lymphoma, non‐Hodgkin lymphoma; SU‐DHL‐18, lymph node lymphoma; SU‐DHL‐1, histiocytic large cell lymphoma; KM‐H2, Hodgkin lymphoma) (Table 3). In this case, a different behaviour was observed.
# (§1) To test the newly synthesized compounds, various human cell lines were employed. HD‐MB03 cells were purchased from DSMZ (Braunschweig, Germany), while A549, MDA‐MB‐231, RPMI‐8420, SU‐DHL‐8, TOLEDO, VL51, SU‐DHL‐1, SU‐DHL‐18, and KM‐H2 were obtained from ATCC (Manassas, VA, USA). Cells were cultured in DMEM (for MDA‐MB‐231 and A549) or RPMI‐1640 (for RPMI‐8420, SU‐DHL‐8, TOLEDO, VL51, SU‐DHL‐1, SU‐DHL‐18, KM‐H2, and HD‐MB03) media (Gibco, Milan, Italy). Both media were supplemented with 115 units/mL penicillin G (Gibco, Milan, Italy), 115 µg/mL streptomycin (Invitrogen, Milan, Italy), and 10% fetal bovine serum (Invitrogen, Milan, Italy). Peripheral blood mononuclear cells (PBMCs) were isolated from healthy donors as previously described. For cytotoxicity assays, PBMCs were resuspended at 5 × 10⁵ cells/mL in complete RPMI medium with or without 2.5 µg/mL phytohemagglutinin (PHA) (Irvine Scientific) to stimulate T‐cell activation and proliferation. All cell lines were maintained at 37°C in a humidified atmosphere containing 5% CO₂. All compounds were dissolved in DMSO at a 10 mM stock concentration. For dose–response assays, cells were seeded in 96‐well plates at densities optimized for each cell line: HD‐MB03 at 10,000 cells/well, A549 at 4000 cells/well, and MDA‐MB‐231 at 7000 cells/well. All other cell lines were seeded at 20,000 cells/well in a final volume of 100 µL per well. After 24 h, cells were treated with a 6‐point serial dilution of compounds starting from 10 µM, in triplicate for statistical analysis. Seventy‐2 h posttreatment, 10 µL of resazurin solution (100 µg/mL) was added to each well, and cells were incubated for an additional 3–6 h. Fluorescence was measured using a Spark 10 M microplate reader (Tecan Group Ltd., Männedorf, Switzerland) with excitation at 535 nm and emission at 600 nm. The IC₅₀ was defined as the concentration of compound required to inhibit cell proliferation by 50% compared to cells treated with the highest DMSO concentration.
# RPMI-8402 = assay: In vitro antiproliferative activity, resazurin cell viability; format: cell-based; conditions: Homo sapiens, T-lymphoblastic leukemia cells, 72 h of treatment, mean ± SEM
# Method: as §1
# (§2) To test the newly synthesized compounds, various human cell lines were employed. HD-MB03 cells were purchased from DSMZ (Braunschweig, Germany), while A549, MDA-MB-231, RPMI-8420, SU-DHL-8, TOLEDO, VL51, SU-DHL-1, SU-DHL-18, and KM-H2 were obtained from ATCC (Manassas, VA, USA). Cells were cultured in DMEM (for MDA-MB-231 and A549) or RPMI-1640 (for RPMI-8420, SU-DHL-8, TOLEDO, VL51, SU-DHL-1, SU-DHL-18, KM-H2, and HD-MB03) media (Gibco, Milan, Italy). Both media were supplemented with 115 units/mL penicillin G (Gibco, Milan, Italy), 115 µg/mL streptomycin (Invitrogen, Milan, Italy), and 10% fetal bovine serum (Invitrogen, Milan, Italy). Peripheral blood mononuclear cells (PBMCs) were isolated from healthy donors as previously described. ^[1] For cytotoxicity assays, PBMCs were resuspended at 5 × 10⁵ cells/mL in complete RPMI medium with or without 2.5 µg/mL phytohemagglutinin (PHA) (Irvine Scientific) to stimulate T cell activation and proliferation. All cell lines were maintained at 37 °C in a humidified atmosphere containing 5% CO₂. All compounds were dissolved in DMSO at a 10 mM stock concentration. For dose–response assays, cells were seeded in 96-well plates at densities optimized for each cell line: HD-MB03 at 10,000 cells/well, A549 at 4,000 cells/well, and MDA-MB-231 at 7,000 cells/well. All other cell lines were seeded at 20,000 cells/well in a final volume of 100 µL per well. After 24 hours, cells were treated with a 6-point serial dilution of compounds starting from 10 µM, in triplicate for statistical analysis. Seventy-two hours post-treatment, 10 µL of resazurin solution (100 µg/mL) was added to each well, and cells were incubated for an additional 3–6 hours. Fluorescence was measured using a Spark 10M microplate reader (Tecan Group Ltd., Männedorf, Switzerland) with excitation at 535 nm and emission at 600 nm. […]
# HD-MB03 = assay: as above; format: cell-based; conditions: Homo sapiens, medulloblastoma cells, 72 h of treatment, mean ± SEM, at least three experiments
# Method: as §1, §2
# MDA-MB-231 = assay: as above; format: cell-based; conditions: Homo sapiens, triple-negative breast cancer, 72 h of treatment, mean ± SEM
# Method: as §1, §2
# A549 = assay: as above; format: cell-based; conditions: Homo sapiens, non-small cell lung cancer, 72 h of treatment, mean ± SEM
# Method: as §1, §2
# SU-DHL-8 = assay: as above; format: cell-based; conditions: Homo sapiens, B lymphocyte, large cell lymphoma, 72 h of treatment, mean ± SEM
# Method: as §1, §2
IC50 [1] [µM],IC50 (MDA-MB-231) [µM],IC50 (A549) [µM],IC50 (SU-DHL-8) [µM],"IC50 values, range over lymphoma cell lines [1]",SMILES,IC50 (RPMI-8402) [µM],IC50 (HD-MB03) [µM]
3.79 to 6.74,4.99 ± 0.35,6.92 ± 0.68,2.15 ± 0.45,,"O=C(Nc1ccc(Cl)cc1)c1cc(/C=C/c2ccccc2[N+](=O)[O-])nc2ccccc12 [4ah, (E)-N-(4-chlorophenyl)-2-(2-nitrostyryl)quinoline-4-carboxamide]",1.33 ± 0.02,> 10
1.03 to 7.6,> 10,> 10,1.64 ± 0.25,,"O=C(Nc1ccc([N+](=O)[O-])cc1)c1cc(/C=C/c2ccccc2)nc2ccccc12 [4i, (E)-N-(4-nitrophenyl)-2-styrylquinoline-4-carboxamide]",1.14 ± 0.12,> 10
,> 10,> 10,0.46 ± 0.05,devoid of antiproliferative activity,"COc1cc(/C=C/c2cc(C(=O)Nc3c(C)cccc3C)c3ccccc3n2)cc(OC)c1OC [4n, (E)-N-(2,6-dimethylphenyl)-2-(3,4,5-trimethoxystyryl)quinoline-4-carboxamide]",0.79 ± 0.07,> 10
,> 10,> 10,1.37 ± 0.14,devoid of antiproliferative activity,"COc1cc(/C=C/c2cc(C(=O)Nc3ccc([N+](=O)[O-])cc3)c3ccccc3n2)cc(OC)c1OC [4s, (E)-N-(4-nitrophenyl)-2-(3,4,5-trimethoxystyryl)quinoline-4-carboxamide]",> 10,> 10
